Laboratory results reported in ChEMBL document CHEMBL5260825, “Chemical Constituents of Bryophytes: Structures and Biological Activity” (J Nat Prod, 2018).
Converted amounts (≈) assume the structure as drawn. “And” between values parts separate entries of the source, which are not always exact repeats. Equal entries are not always repeated.

Experiments:
[1] = test system: Trypanosoma brucei brucei; assay: […] activity against Trypanosoma brucei brucei GUTat 3.1 assessed as inhibition of parasite growth measured after 72 hrs by alamar blue assay; format: functional, organism-based; conditions: GUTat 3.1, time 72 hrs, read-out: ED50 (the source's name)
A549 = assay: Antiproliferative activity against human A549 cells assessed as cell growth inhibition; format: functional; conditions: read-out: ED50 (the source's name)
RPMI-7951 = assay: Antiproliferative activity against human RPMI-7951 cells assessed as cell growth inhibition; format: functional; conditions: read-out: ED50 (the source's name)
Zymoseptoria tritici = assay: Antifungal activity against Zymoseptoria tritici assessed as inhibition of microbial growth by microtiter plate based analysis; format: functional, organism-based
Phytophthora infestans = assay: Antifungal activity against Phytophthora infestans assessed as inhibition of microbial growth by microtiter plate based analysis; format: functional, organism-based
[2] = Antioxidant activity assessed as DPPH radical scavenging activity; format: functional
Staphylococcus aureus = assay: Antibacterial activity against Staphylococcus aureus assessed as inhibition of bacterial growth by agar diffusion method; format: functional
Bacillus subtilis = assay: Antibacterial activity against Bacillus subtilis assessed as inhibition of bacterial growth; format: functional
HL-60 = assay: Antiproliferative activity against human HL-60 cells assessed as cell growth inhibition; format: functional, cell-based
RAW264.7 = assay: Inhibition of LPS-induced NO production in mouse RAW264.7 cells incubated for 24 hrs by Griess reagent based assay; format: functional, cell-based; conditions: RAW264.7, 24 h
[3] = Toxicity in brine shrimp assessed as lethality; conditions: artemia salina
[4] = test system: Trichophyton mentagrophytes; assay: Antifungal activity against Trichophyton mentagrophytes assessed as inhibition of microbial growth; format: functional
Candida albicans [5] = assay: Antifungal activity against Candida albicans assessed as inhibition of fungal growth by MTT assay; format: functional
[6] = target: Cathepsin B (Homo sapiens) (UniProt P07858); assay: Inhibition of Cathepsin B (unknown origin) at 0.00001 M relative to control; conditions: dose 10 µM
[7] = target: Procathepsin L (Homo sapiens) (UniProt P07711); assay: Inhibition of Cathepsin L (unknown origin) at 0.00001 M relative to control; conditions: dose 10 µM
Candida albicans [8] = assay: Antifungal activity against Candida albicans assessed as inhibition of fungal growth by MTT method; format: functional
[9] = test system: Panel NCI-60 (60 carcinoma cell lines); assay: Antiproliferative activity against human Panel NCI-60 (60 carcinoma cell lines) assessed as cell growth inhibition; format: functional
P388 = assay: Antiproliferative activity against mouse P388 cells assessed as cell growth inhibition; format: functional, cell-based
[10] = Antiplatelet activity against collagen-induced rabbit platelet assessed as inhibition of platelet aggregation at 100 ug/ml relative to control; format: functional; conditions: Oryctolagus cuniculus
[11] = Antiplatelet activity against arachidonate-induced rabbit platelet assessed as inhibition of platelet aggregation at 100 ug/ml relative to control; format: functional; conditions: Oryctolagus cuniculus
U-251 = assay: Antiproliferative activity against human U-251MG cells assessed as cell growth inhibition; format: functional; conditions: read-out: ED50 (the source's name)
HT-29 = assay: Antiproliferative activity against human HT-29 cells assessed as cell growth inhibition; format: functional, cell-based; conditions: read-out: ED50 (the source's name)
DNA polymerase beta = DNA polymerase beta (Homo sapiens, UniProt P06746); assay: Inhibition of DNA polymerase beta (unknown origin)
[12] = target: T1, Polyunsaturated fatty acid 5-lipoxygenase (Homo sapiens) (UniProt P09917); assay: Inhibition of ALOX5 (unknown origin) at 0.000001 M relative to control; conditions: dose 1 µM
T1 sequence (whole entry): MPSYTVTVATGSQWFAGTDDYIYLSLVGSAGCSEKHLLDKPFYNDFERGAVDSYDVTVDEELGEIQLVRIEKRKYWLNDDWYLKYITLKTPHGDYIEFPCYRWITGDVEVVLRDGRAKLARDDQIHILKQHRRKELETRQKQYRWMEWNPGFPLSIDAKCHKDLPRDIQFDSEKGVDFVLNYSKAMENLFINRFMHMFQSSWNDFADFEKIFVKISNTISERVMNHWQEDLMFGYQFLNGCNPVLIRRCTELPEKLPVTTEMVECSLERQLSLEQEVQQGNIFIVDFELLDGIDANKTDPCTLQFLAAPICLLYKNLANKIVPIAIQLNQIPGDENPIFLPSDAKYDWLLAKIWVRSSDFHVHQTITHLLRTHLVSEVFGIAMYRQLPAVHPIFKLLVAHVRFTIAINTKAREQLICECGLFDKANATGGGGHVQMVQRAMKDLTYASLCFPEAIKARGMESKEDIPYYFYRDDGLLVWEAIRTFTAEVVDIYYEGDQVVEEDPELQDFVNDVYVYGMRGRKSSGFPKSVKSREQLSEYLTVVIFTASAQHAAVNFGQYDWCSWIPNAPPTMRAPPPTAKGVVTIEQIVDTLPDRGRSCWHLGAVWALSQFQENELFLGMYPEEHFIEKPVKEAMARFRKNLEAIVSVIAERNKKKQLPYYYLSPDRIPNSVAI

[13] = test system: Human immunodeficiency virus 1; assay: Antiviral activity against HIV-1; format: functional, organism-based
[14] = Inhibition of superoxide anion radical release in rabbit polymorphonuclear leucocytes; format: functional, cell-based; conditions: Oryctolagus cuniculus, Polymorphonuclear neutrophil
[15] = test system: Peritoneal macrophage cell; assay: Inhibition of superoxide anion radical release in guinea pig peritoneal macrophages; format: functional, cell-based; conditions: Cavia porcellus
Pyricularia oryzae = assay: Antifungal activity against Pyricularia oryzae assessed as inhibition of microbial growth; format: functional, organism-based
[16] = target: Calmodulin-1 (Homo sapiens) (UniProt P0DP23); assay: Inhibition of calmodulin (unknown origin)

Procathepsin L (Homo sapiens), sequence (P07711 114-333 limits assumed): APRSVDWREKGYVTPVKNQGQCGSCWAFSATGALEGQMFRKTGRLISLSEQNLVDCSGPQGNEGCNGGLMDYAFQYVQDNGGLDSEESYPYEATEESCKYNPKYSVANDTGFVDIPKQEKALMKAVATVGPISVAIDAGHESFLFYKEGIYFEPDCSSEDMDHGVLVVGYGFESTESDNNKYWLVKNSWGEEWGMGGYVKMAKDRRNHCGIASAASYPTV

SMILES: Cc1ccc(C(=O)Nc2ccc(S(=O)(=O)O)c3cc(S(=O)(=O)O)cc(S(=O)(=O)O)c23)cc1NC(=O)c1cccc(NC(=O)Nc2cccc(C(=O)Nc3cc(C(=O)Nc4ccc(S(=O)(=O)O)c5cc(S(=O)(=O)O)cc(S(=O)(=O)O)c45)ccc3C)c2)c1 [SURAMIN]
- EC50 [1]: 1.5 µg/mL (≈ 1.16 µM)

SMILES: COc1cc(OC)c2c3c1-c1c(O)cccc1[C@@H]1Oc4ccccc4[C@@H](C[C@@H]2OC)[C@@H]31
- EC50 (A549): 1 µg/mL (≈ 2.4 µM)
- EC50 (RPMI-7951): 1 µg/mL (≈ 2.4 µM)

SMILES: CC1=CC[C@H]2C(C)(C)CCC[C@]2(C)[C@H]1C=O
- IC50 (Zymoseptoria tritici): 17.6 µg/mL
- IC50 (Phytophthora infestans): < 0.03 µg/mL

SMILES: Cc1cc([C@@]2(C)CCCC2(C)C)c(O)c(O)c1Cc1cc(O)c(O)c([C@@]2(C)CCCC2(C)C)c1
- IC50 [2]: 2.7 µg/mL (≈ 5.79 µM)
- diameter of the inhibition zone (DIZ) (Staphylococcus aureus): 13 mm
- MIC (Bacillus subtilis): 2 µg/mL (≈ 4.29 µM)
- IC50 (HL-60): 2.4 µg/mL (≈ 5.14 µM)
- IC50 (RAW264.7): 4.1 µM

SMILES: COc1ccc(CCc2c(Cl)ccc(O)c2Cl)cc1Cl
- LC50 [3]: 0.42 ppm

SMILES: Oc1cc2ccc1Oc1cccc(c1)CCc1ccc(O)c(c1)Oc1ccc(cc1)CC2
- MIC (Bacillus subtilis): 1.5 µg/mL (≈ 3.53 µM)
- MIC [4]: 1 µg/mL
- MID (Candida albicans [5]): 0.25 µg/mL

SMILES: C=C1C(=O)O[C@@H]2[C@H]3C(C)=C[C@H]4OC(=O)C(=CC[C@@H]12)[C@@H]34
- inhibition [6]: 24.7%
- inhibition [7]: 13.4%

SMILES: CO[C@@H]1CC[C@]2(C)C3CCC4C(=CCC5C(C)(C)[C@H](O)CC[C@]45C)C[C@]3(C)CC[C@H]2C1(C)C (stereo partly drawn)
- MIC (Candida albicans [8]): 2 µg/mL (≈ 4.38 µM)

SMILES: Oc1ccc(CCc2c(Cl)cc(Cl)c(O)c2Cl)cc1Cl
- LC50 [3]: 0.42 ppm

SMILES: C=C1C(=O)[C@]23O[C@@H]2[C@H]1CCC(=O)[C@]1(C)CCCC(C)(C)[C@H]1C[C@H]3O
- GI50 [9]: 2.5 µM
- GI50 (P388): 0.27 µg/mL and 800 nM
- IC50 (P388): 0.27 µg/mL (≈ 0.812 µM)

SMILES: COC(=O)c1c(C)cc(O)c(C)c1O [ATRARIC ACID]
- MIC (Candida albicans [8]): 0.6 µg/mL (≈ 3.06 µM)

SMILES: C=C(C)[C@H]1CC=C2C(=O)O[C@H]3C=C(C)[C@H](OO)[C@@H]1[C@@H]23
- inhibition at 100 µg/mL [10]: 93%
- inhibition at 100 µg/mL [11]: 50%

SMILES: COc1cc(OC)c2c3c1C(=O)C[C@@H]1c4ccccc4O[C@@H](c4cccc(O)c4-2)[C@H]31
- EC50 (U-251): 2 µg/mL (≈ 4.99 µM)
- EC50 (RPMI-7951): 1 µg/mL (≈ 2.5 µM)
- EC50 (HT-29): 1 µg/mL (≈ 2.5 µM)

SMILES: Oc1cc2cc(c1O)Oc1ccc(cc1)CCc1cccc(O)c1Oc1cccc(c1)CC2O (stereo not drawn)
- IC50 (DNA polymerase beta): 14.4 µM
- inhibition [12]: 4%
- IC50 [13]: 5.3 µg/mL (≈ 11.6 µM)

SMILES: C=C(C=O)[C@@H]1[C@@H]2[C@H](CC[C@@]3(CO3)[C@@H]1C=O)C2(C)C
- IC50 [14]: 6 µg/mL (≈ 24.2 µM)
- IC50 [15]: 40 µg/mL (≈ 161 µM)

SMILES: C=C1C(=O)C2=C[C@H]1C[C@H](O)C(=O)[C@]1(C)CCCC(C)(C)[C@H]1C[C@H]2O
- GI50 [9]: 1.5 µM

SMILES: Cc1ccc2c(c1O)[C@@H](C(C)C)CC[C@H]2C
- IC50 (Pyricularia oryzae): 1.7 µg/mL

SMILES: C=C1CC[C@]2(C)[C@@H](O)[C@H]1[C@]1(C)CCC[C@@]12C
- IC50 (Phytophthora infestans): 0.1 µg/mL

SMILES: Oc1ccc2cc1Oc1ccc(cc1)CCc1ccc(c(O)c1O)Oc1cccc(c1)CC2
- MIC [4]: 0.5 µg/mL
- MID (Candida albicans [5]): 0.2 µg/mL

SMILES: COc1ccc2c(c1)CCc1ccc(cc1)Oc1cc(ccc1O)CCc1ccc-2c(O)c1
- inhibition [12]: 4%
- ID50 [16]: 20 µg/mL (≈ 45.6 µM)

SMILES: CC1(C)CCC[C@]1(C)c1cc(CCc2cc(O)c(O)c([C@@]3(C)CCCC3(C)C)c2)cc(O)c1O
- IC50 [2]: 2 µg/mL (≈ 4.29 µM)
- MIC (Bacillus subtilis): 2 µg/mL (≈ 4.29 µM)
- IC50 (HL-60): 2.5 µg/mL (≈ 5.36 µM)
- IC50 (RAW264.7): 4.1 µM
